Tested on: primary human intestinal epithelial monolayers
Experiment: Paracellular permeability measurement across primary organoid derived monolayers (bi-layer chips vs static inserts)
Assay type: in vitro ADME
Conditions: apical to basal, 5 days, p-value=0.0029
Procedure: The apparent permeability coefficient for a 4.4 kDa, tetramethylrhodamine (TRITC) labeled dextran (cat no. T1037, Sigma-Aldrich) was determined by measuring transport across the Caco-2 cell monolayer. TEER values of cell monolayers were measured prior to the permeability assay and monolayers with TEER values below 165Ω×cm^2 were not used. For control Transwell cultures, 300 μL of 500 μM dextran in cell culture medium was applied to the apical compartment. 100 μL was immediately sampled from the apical compartment, transferred to a black, polystyrene, 96 well plate and stored in a 4° C. fridge. Transwells were maintained in a humidified, 37° C.+5% CO2 incubator. 100 μL aliquots were sampled from the basolateral compartment every 30 minutes over 3 hours and 100 μL of fresh medium preheated to 37° C. was added to replace the aliquoted volume. The fluorescence intensity of the collected basolateral samples was measured at 557 nm and 576 nm […] wavelengths, respectively. The actual dextran concentration was determined via a calibration curve. The apparent permeability coefficient was calculated as specified. […] The apparent permeability coefficient for Lucifer Yellow (cat no. L0259, Sigma-Aldrich) across primary organoid derived monolayers on static inserts and bi-layer chips was determined as described above. […]

How did the “apparent permeability, change between 5-day static and fluidic device models” value turn out when Lucifer Yellow was run?
The value was “significant increase”.
